In ChEMBL document CHEMBL1201862, “PubChem BioAssay data set” (2004):
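96-well plates; 48 h exposure; 5 concentrations. Endpoints by linear interpolation between flanking doses. Not reached: highest tested concentration assigned. GI50: concentration for 50% inhibition of growth.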 The source made the active and inactive calls. Cut-off read from the data, not from the text of the source: active = GI50 up to about 1.1 µM and inactive = higher.

Experiments:
Experiment in all cases: NCI tumour cell line growth inhibition, 48 h
786-0 = system: 786-0
ACHN = system: ACHN
EKVX = system: EKVX
HOP-62 = system: HOP-62
HOP-92 = system: HOP-92
KM12 = system: KM12
M14 = system: M14
Malme-3M = system: Malme-3M
NCI-H226 = system: NCI-H226
NCI-H460 = system: NCI-H460
OVCAR-4 = system: OVCAR-4
OVCAR-5 = system: OVCAR-5
RXF 393 = system: RXF 393
SF-268 = system: SF-268
SK-MEL-5 = system: SK-MEL-5
U-251 = system: U-251
UACC-62 = system: UACC-62
MDA-MB-435 = system: MDA-MB-435
NCI/ADR-RES = system: NCI/ADR-RES
PC-3 = system: PC-3

SMILES | GI50 (786-0) | GI50 (ACHN) | GI50 (EKVX) | GI50 (HOP-62) | GI50 (HOP-92) | GI50 (KM12) | GI50 (M14) | GI50 (Malme-3M) | GI50 (NCI-H226) | GI50 (NCI-H460) | GI50 (OVCAR-4) | GI50 (OVCAR-5) | GI50 (RXF 393) | GI50 (SF-268) | GI50 (SK-MEL-5) | GI50 (U-251) | GI50 (UACC-62) | GI50 (MDA-MB-435) | GI50 (NCI/ADR-RES) | GI50 (PC-3)
C/C=C/C1(NS(=O)(=O)c2ccc(C)cc2)CCC(C(C)(C)C)CC1 (stereo not given) | 19 µM (inactive) | 36.2 µM (inactive) | 23 µM (inactive) | 22 µM (inactive) | 19.7 µM (inactive) | 20.8 µM (inactive) | 17.3 µM (inactive) | 22.2 µM (inactive) | 20.6 µM (inactive) | 21.7 µM (inactive) | 23 µM (inactive) | 20.7 µM (inactive) | 24.3 µM (inactive) | 29.6 µM (inactive) | 17.5 µM (inactive) | 16.1 µM (inactive) | 19 µM (inactive) | – | – | –
COc1ccc(CC2NCCc3cc(OC)c(OC)cc32)cc1 (stereo not given) | > 100 µM (inactive) | > 100 µM (inactive) | > 100 µM (inactive) | > 100 µM (inactive) | 57.4 µM (inactive) | > 100 µM (inactive) | > 100 µM (inactive) | > 100 µM (inactive) | > 100 µM (inactive) | > 100 µM (inactive) | > 100 µM (inactive) | > 100 µM (inactive) | > 100 µM (inactive) | > 100 µM (inactive) | > 100 µM (inactive) | > 100 µM (inactive) | > 100 µM (inactive) | – | – | –
CCOC(=O)NC1C2CC(=O)OC(O2)C1OC(C)=O (stereo not given) | > 100 µM (inactive) | > 100 µM (inactive) | > 100 µM (inactive) | > 100 µM (inactive) | > 100 µM (inactive) | > 100 µM (inactive) | > 100 µM (inactive) | > 100 µM (inactive) | 0.424 µM (active) | > 100 µM (inactive) | > 100 µM (inactive) | > 100 µM (inactive) | > 100 µM (inactive) | > 100 µM (inactive) | > 100 µM (inactive) | > 100 µM (inactive) | > 100 µM (inactive) | – | – | –
Cc1c2nc3ccccc3sc-2cc(=O)c1C | > 100 µM (inactive) | 48.9 µM (inactive) | > 80.4 µM (inactive) | > 100 µM (inactive) | > 65.9 µM (inactive) | 76.6 µM (inactive) | 55.3 µM (inactive) | 46.5 µM (inactive) | > 100 µM (inactive) | 12.4 µM (inactive) | 65.3 µM (inactive) | > 95.5 µM (inactive) | 90.8 µM (inactive) | 25.6 µM (inactive) | 34.8 µM (inactive) | 47.5 µM (inactive) | 15.5 µM (inactive) | – | – | –
O=C(CC(C(=O)c1ccoc1)c1ccco1)c1ccco1 (stereo not given) | > 100 µM (inactive) | > 100 µM (inactive) | > 100 µM (inactive) | > 100 µM (inactive) | > 100 µM (inactive) | 57 µM (inactive) | > 100 µM (inactive) | – | > 100 µM (inactive) | > 100 µM (inactive) | 43.1 µM (inactive) | > 100 µM (inactive) | > 100 µM (inactive) | > 100 µM (inactive) | > 100 µM (inactive) | > 100 µM (inactive) | > 100 µM (inactive) | 30 µM (inactive) | 80.5 µM (inactive) | –
Clc1ccc(-c2c(C3=NCCN3)nnn2-c2ccc(Cl)cc2)cc1 | 21.8 µM (inactive) | 39.7 µM (inactive) | 59.8 µM (inactive) | 53.1 µM (inactive) | 18.2 µM (inactive) | 19.8 µM (inactive) | 17.1 µM (inactive) | 19.1 µM (inactive) | 60.4 µM (inactive) | 14.8 µM (inactive) | 47.4 µM (inactive) | 33 µM (inactive) | 16.7 µM (inactive) | 32.2 µM (inactive) | 16.8 µM (inactive) | 20.5 µM (inactive) | 18.1 µM (inactive) | – | – | –
N#CC(C(=N/O)/C(=N\O)C(C#N)c1ccccc1)c1ccccc1 (stereo not given) | > 100 µM (inactive) | > 100 µM (inactive) | > 100 µM (inactive) | > 100 µM (inactive) | > 100 µM (inactive) | > 100 µM (inactive) | > 100 µM (inactive) | > 100 µM (inactive) | > 100 µM (inactive) | > 100 µM (inactive) | > 100 µM (inactive) | > 100 µM (inactive) | > 100 µM (inactive) | > 100 µM (inactive) | > 100 µM (inactive) | > 100 µM (inactive) | > 100 µM (inactive) | – | – | –
CCCCNS(=O)(=O)c1ccc(-c2ccc3c(c2)-c2ccc(S(=O)(=O)NCCCC)cc2S3(=O)=O)cc1 | 11.6 µM (inactive) | 21.6 µM (inactive) | 39.4 µM (inactive) | 14.9 µM (inactive) | 19.3 µM (inactive) | 22.9 µM (inactive) | 17.3 µM (inactive) | 14.9 µM (inactive) | 12.6 µM (inactive) | 10.4 µM (inactive) | 2.65 µM (inactive) | > 100 µM (inactive) | 10.8 µM (inactive) | 9.48 µM (inactive) | 2.18 µM (inactive) | 23 µM (inactive) | 13.2 µM (inactive) | – | – | –
CC(C)(C)OC(=O)N[C@H]1CC2(C=C(Cl)C(=O)C(Cl)=C2)OC1=O | 14.9 µM (inactive) | 14.6 µM (inactive) | 15.2 µM (inactive) | > 58.9 µM (inactive) | 16.9 µM (inactive) | 17.7 µM (inactive) | 14.4 µM (inactive) | 11.5 µM (inactive) | > 59.7 µM (inactive) | 24.3 µM (inactive) | 16.3 µM (inactive) | 19.5 µM (inactive) | 10.1 µM (inactive) | 17.3 µM (inactive) | 19.1 µM (inactive) | 20.7 µM (inactive) | 16.5 µM (inactive) | – | – | 17.1 µM (inactive)
O=C(CC(=O)c1cccc([N+](=O)[O-])c1)C(=O)Nc1ccccc1 | > 100 µM (inactive) | > 100 µM (inactive) | > 100 µM (inactive) | > 100 µM (inactive) | > 100 µM (inactive) | > 100 µM (inactive) | > 100 µM (inactive) | > 100 µM (inactive) | > 100 µM (inactive) | > 100 µM (inactive) | > 100 µM (inactive) | > 100 µM (inactive) | > 100 µM (inactive) | > 100 µM (inactive) | > 100 µM (inactive) | > 100 µM (inactive) | > 100 µM (inactive) | – | – | –
C[Si](C)(C)/C(Br)=C\CCN1C(=O)CCC1=O | > 100 µM (inactive) | > 100 µM (inactive) | > 100 µM (inactive) | > 100 µM (inactive) | > 100 µM (inactive) | > 100 µM (inactive) | > 100 µM (inactive) | > 100 µM (inactive) | > 100 µM (inactive) | > 100 µM (inactive) | > 100 µM (inactive) | > 100 µM (inactive) | > 100 µM (inactive) | > 100 µM (inactive) | > 100 µM (inactive) | > 100 µM (inactive) | > 100 µM (inactive) | – | – | –
Nc1nc2sc3ccccc3c(=O)n2n1 | > 100 µM (inactive) | > 100 µM (inactive) | 64.7 µM (inactive) | > 100 µM (inactive) | > 100 µM (inactive) | > 100 µM (inactive) | > 100 µM (inactive) | > 100 µM (inactive) | > 100 µM (inactive) | > 100 µM (inactive) | > 100 µM (inactive) | > 100 µM (inactive) | > 100 µM (inactive) | > 100 µM (inactive) | > 100 µM (inactive) | > 100 µM (inactive) | > 100 µM (inactive) | – | – | –
COc1cccc(-c2cc(O)c3cc4c(cc3n2)OCO4)c1 | 0.107 µM (active) | 0.183 µM (active) | 2.59 µM (inactive) | 0.116 µM (active) | 18 µM (inactive) | 0.0502 µM (active) | 0.0463 µM (active) | 0.0488 µM (active) | 0.198 µM (active) | 0.142 µM (active) | 0.938 µM (active) | 0.251 µM (active) | 0.0452 µM (active) | 0.731 µM (active) | 0.0352 µM (active) | 0.121 µM (active) | 0.0531 µM (active) | – | – | –
CCN(CC)CCOc1ccc(C(O)(Cc2ccc(OC)cc2)c2ccccc2)cc1 (stereo not given) | 17.3 µM (inactive) | 27.5 µM (inactive) | 26.9 µM (inactive) | 15.9 µM (inactive) | 14.7 µM (inactive) | 17.3 µM (inactive) | 14.3 µM (inactive) | 18.5 µM (inactive) | 26.4 µM (inactive) | 22.2 µM (inactive) | 16.1 µM (inactive) | 20 µM (inactive) | 13.1 µM (inactive) | 21.5 µM (inactive) | 13.2 µM (inactive) | 16.2 µM (inactive) | 16.7 µM (inactive) | – | – | –
CCCCCCCCCCCCCC(=O)O[C@H]1CC[C@H](NC(=O)[C@H](OC)[C@H](O)[C@@H](O)[C@H](O)/C=C/C(C)C)C(=O)N(C)C1 [BENGAMIDE B] | 0.00457 µM (active) | 0.00261 µM (active) | 1.08 µM (active) | 0.00809 µM (active) | 0.00684 µM (active) | 0.00418 µM (active) | 0.0128 µM (active) | 0.0362 µM (active) | 0.00592 µM (active) | < 0.0015 µM (active) | 0.014 µM (active) | 4.65 µM (inactive) | 0.0615 µM (active) | 0.0036 µM (active) | 0.0199 µM (active) | 0.00286 µM (active) | 0.00807 µM (active) | – | – | –
O=C(O)/C=C/c1ccc(O)c(O)c1 [CAFFEIC ACID] | > 100 µM (inactive) | > 100 µM (inactive) | > 100 µM (inactive) | > 100 µM (inactive) | > 100 µM (inactive) | > 100 µM (inactive) | > 100 µM (inactive) | > 100 µM (inactive) | > 100 µM (inactive) | > 100 µM (inactive) | > 100 µM (inactive) | > 100 µM (inactive) | > 100 µM (inactive) | > 100 µM (inactive) | > 100 µM (inactive) | > 100 µM (inactive) | > 100 µM (inactive) | – | – | > 100 µM (inactive)
